According to US6451307B1, “3′-exonuclease, production and use thereof” (Aventis Research & Technologies GmbH & Co. KG, priority 1998, dated 2002):
Entries after “also recorded” stand apart in the source; their conditions may differ.

Experiments:
Assay type in all cases: biochemical, bovine
[1] = tested on: poly(A)-specific 3′-exonuclease activity; assay: Substrate specificity: Km and Vmax for homopolymer-tailed RNA substrates (Lineweaver-Burke plot); conditions: Poly(A) Sepharose fraction; tail-labeled RNA substrates
Experimental: (§1) The test conditions for the in-vitro deadenylation were as follows: 1 mM MgCl2, 2.5% (w/v) poly(vinyl alcohol) (Sigma P-8136, Mw 10,000), 100 mM KCl, 0.15 Unit RNAguard, from 5 to 20 fmol of RNA substrate, from 20 to 48% (v/v) buffer (20 mM HEPES (KOH), 0.2 mM EDTA, 0.5 mM DTT, 25% glycerol, pH 7) and the appropriate protein fraction (Åström, J. et al. (1992), see above). The reaction volume was 15 or 25 μl and the incubations were carried out at 30° C. The reactions were then terminated and RNA was purified as described in Moore, C. L. & Sharpe, P. A. (1985), see above. The RNA was analyzed by electrophoresis in 10% polyacrylamide (19:1 acrylamide/bisacrylamide)—7 M urea gels, followed by autoradiography of the resulting gels.
(§2) The deadenylation activity was quantified as follows: L3(A30) RNA substrate, labeled with [α^32P]ATP, was incubated in an in-vitro deadenylation reaction. The reaction products were analyzed by 1D TLC using mobile solvent III (0.75 M K2HPO4, pH 3.5 (H3PO4)). The resulting PEI-Cellulose F plate was dried and scanned in a 400 S Phosphorimager (Molecular Dynamics). The fractions containing released [α^32P]AMP were determined. The quantity, in mol, of released AMP was calculated on the basis of the known specific activity of [α^32P]AMP in the RNA substrate. One unit of deadenylation activity corresponds to the release of 1 pmol of AMP/minute.
The RNA substrate specificity of the activity was investigated in two experiments. In a first experiment, the RNA substrates L3(A30), ML45(U30), ML40(C32) and ML43(G30), whose homopolymeric tails had been radioactively labeled, were incubated in an in-vitro deadenylation test (see above). The release of radioactive mononucleotides was measured in the 1D TLC test (see above). The measurement results were used to calculate the Km and Vmax values for each RNA substrate using the Lineweaver-Burke plot (see Table II). In a second experiment, the substrate specificity was measured by incubating RNA substrates containing internal poly(A) segments, followed by plasmid-encoded RNA sequences of increasing length, with Poly(A) Sepharose fractions in an in-vitro deadenylation test. […] It follows from this that RNA tails composed of adenosine residues are the preferred substrate and that only 3′ end-located poly(A) tails are effectively degraded.

[2] = tested on: poly(A)-specific 3′-exonuclease activity; assay: Conditions for the in-vitro deadenylation: ions and spermidine (1D TLC); conditions: for influence on deadenylation activity / decrease of activity as compared with the activity in the presence of Mg2+: Poly(A) Sepharose fraction; for influence on deadenylation activity: tail-labeled L3(A30) RNA; for decrease of activity as compared with the activity in the presence of Mg2+: 1 mM divalent ion, L3(A30) RNA
Experimental: as §1, §2
The conditions for measuring poly(A) deadenylation activity in accordance with the above-described deadenylation test were determined using Poly(A) Sepharose fractions as the enzyme source and poly(A) tail-labeled L3(A30) RNA as the substrate. The activity was measured in terms of the release of the mononucleotides in the 1D TLC test (see above). The requirement of monovalent (potassium and sodium) and divalent (magnesium, manganese, zinc and calcium) ions for this was investigated.

[3] = tested on: poly(A)-specific 3′-exonuclease activity; assay: Kinetics of the nuclease activity (time course, added poly(A)); conditions: 20 minutes, 0.5 μl Poly(A) Sepharose fraction, L3(A30) RNA
Experimental: FIGS. 5A-C show the ongoing degradation of poly(A). The Poly(A) Sepharose fraction was incubated, under in-vitro deadenylation conditions, with X fmol of the L3(A30) RNA substrate which had been labeled with [α-^32P]UTP during in-vitro transcription. The reaction products were fractionated in a 10% polyacrylamide:bisacrylamide 19:1-7 M urea gel. S and P indicate the migration sites of the RNA substrate (S) and the product (P). […] The indicated quantities of poly(A) in ng were added to the reactions.
as §1, with “The reaction volume was 15 or 25 μl and the incubations were carried out at 30° C. The reactions were then terminated and RNA was purified as described in Moore, C. L. & Sharpe, P. A. (1985), see above.” left out
In order to determine whether the nuclease activity degrades RNA substrates in a progressive or distributive manner, the kinetics was first of all determined in an in-vitro deadenylation reaction in the presence of 0.5 μl of a Poly(A) Sepharose fraction and x fmol of L3(A30) RNA substrate which had been labeled overall. […]

Km [1] | Molecule | influence on deadenylation activity [2] | decrease of activity as compared with the activity in the presence of Mg2+ [2] | also measured
0.007 µM | poly(G) |  |  | 
 | [Mg+2] [magnesium ions] |  |  | optimum concentration of ion for deadenylation activity [2]: 1 mM
 | NCCCCNCCCN [spermidine] | no influence on the activity; also recorded: if anything, it is inhibited both at low and at high salt concentrations |  | 
 | [Zn+2] [Zn^2+] |  | 2% | 
 | [K+] [potassium ions] | activity is higher in the presence of potassium ions than in the presence of sodium ions |  | 
0.02 µM | poly(U) |  |  | 
 | [Mn+2] [Mn^2+] | also active in the presence of Mn^2+ | 17% | 
 | [Ca+2] [Ca^2+] |  | 0.7% | 
0.01 µM | poly(C) |  |  | 
0.01 µM | poly(A) |  |  | effect of added poly(A) on the deadenylation reaction [3]: inhibits the reaction
